Laboratory results taken from US8816151B2, “Stat5b transgenic mice and methods of use thereof” (Georgia Health Sciences University Research Institute, Inc., priority 2012, dated 2014).

Experiments:
phosphorylated STAT5 = test: STAT5 phosphorylation (p-STAT5) by Western blotting and FACS in treated NOD.Stat5bTg mice; type: in vivo, mouse; conditions: for p-STAT5 expression in thymocytes: NOD.Stat5bTg mice, treatment for 2 weeks, Western analysis and FACS; for STAT5 activation (pSTAT5) in peripheral blood CD8+ T cells: 10-week old NOD.Stat5bTg mice treated for 2 weeks, FACS
Description: (§1) AG490 (30 mg/kg/day) and STAT5 inhibitor CNH (40 mg/kg/day) purchased from Calbiochem (La Jolla, Calif.) were injected intraperitoneally into F1 and NOD.Stat5b transgenic lines. Xanthohumol and apigenin (>98% purity by HPLC) purchased from Sigma (St. Louis, Mo.) were used in the chemoprevention experiments. Xanthohumol (100 mg/kg/day) and Apigenin (200 mg/kg/day) were injected alone or in combination intraperitoneally into NOD.Stat5b^Tg mice.
(§2) Single-cell suspensions from thymus, spleen, lymph nodes and hollow fibers were stained and analyzed using a fluorescence-activated cell sorting (FACS) flow cytometer (BD Biosciences) with CELLQuest 3.3 software (Becton Dickinson, San Jose, Calif.). All antibodies were purchased from BD PharMingen (San Diego, Calif.) except anti-CD150-PE from Biolegend (San Diego, Calif.). For intracellular staining, cells were fixed and permeablized using Cytofix/Cytoperm solution (BD PharMingen), followed by P-Stat5 (pY694)-APC staining.
Whole cell extracts were prepared from thymus or spleens using RIPA lysis buffer (Santa Cruz) supplemented with protease inhibitors. Western blot analysis was carried out as reported (29) by probing the blots with rabbit anti-phospho-Stat5 (Tyr694), rabbit anti-Stat5 or mouse anti-β-actin (Santa Cruz biotechnology), washed, and incubated with a horseradish peroxidase-conjugated anti-rabbit or anti-mouse antibody (Santa Cruz biotechnology). Immunopositive bands were photographed (Versadoc; Bio-Rad) after blots were developed with an enhanced chemiluminescent substrate (Pierce Chemical Co).

[1] = system: CD8+ lymphoma cells derived from F1.Stat5bTg mice; test: In vivo hollow fiber assay, lymphoma cells from F1.Stat5bTg mice; design: species or system mouse; conditions: hollow fiber assay (data not shown)
CD8+ thymocytes = test: Number of CD8+ thymocytes in treated NOD.Stat5bTg mice; type: in vivo, mouse; conditions: treatment for 2 weeks
Description: AG490 (30 mg/kg/day) and STAT5 inhibitor CNH (40 mg/kg/day) purchased from Calbiochem (La Jolla, Calif.) were injected intraperitoneally into F1 and NOD.Stat5b transgenic lines. Xanthohumol and apigenin (>98% purity by HPLC) purchased from Sigma (St. Louis, Mo.) were used in the chemoprevention experiments. Xanthohumol (100 mg/kg/day) and Apigenin (200 mg/kg/day) were injected alone or in combination intraperitoneally into NOD.Stat5b^Tg mice. Single-cell suspensions from thymus, spleen, lymph nodes and hollow fibers were stained and analyzed using a fluorescence-activated cell sorting (FACS) flow cytometer (BD Biosciences) with CELLQuest 3.3 software (Becton Dickinson, San Jose, Calif.). All antibodies were purchased from BD PharMingen (San Diego, Calif.) except anti-CD150-PE from Biolegend (San Diego, Calif.). For intracellular staining, cells were fixed and permeablized using Cytofix/Cytoperm solution (BD PharMingen), followed by P-Stat5 (pY694)-APC staining.

[2] = system: Ckmt2, Dgat2, Myl4, Csrp3, Nppa, Sln and Myh6; test: Real-time RT-PCR of genes up-regulated in NOD.Stat5bTg mice; type: in vivo, mouse; conditions: normalized with GAPDH, versus vehicle-treated NOD.Stat5bTg mice
Description: as §1
RNA was isolated from thymus using the miRACLE™ total RNA isolation kit (Jinfiniti Biosciences) or RNeasy® kit (QIAGEN) and used for microarray and real-time RT-PCR analyses. The Illumina's MouseRef-8 v2.0 Expression BeadChip was used for transcriptional analysis. This BeadChip targets approximately 25,600 well-annotated RefSeq transcripts, over 19,100 unique genes, and enables the interrogation of eight samples in parallel. Probe preparation and hybridization were carried out according to Manufacture's recommendation. The microarray data are MIAME compliant and have been deposited in NCBI Gene Expression Omnibus and are accessible through GEO Series accession number GSE31526.
Real-time PCR was carried out in 96-well PCR plates using the ABI Prism 7900HT real-time PCR instrument (Applied Biosystems, Roche). […] The fluorescent signal was measured at the end of the annealing/elongation step in each cycle.

CD150 = CD150 expression by FACS in treated NOD.Stat5bTg mice; type: in vivo, mouse; conditions: for CD150 expression on CD8+ thymocytes: NOD.Stat5bTg mice, treatment for 2 weeks, intraperitoneal; for CD150 expression in peripheral blood CD8+ T cells: 10-week old NOD.Stat5bTg mice treated for 2 weeks
Description: as §1, §2

[3] = system: Lymphoma cells from NOD.Stat5bTg mice; test: In vivo hollow fiber assay, lymphoma cells from NOD.Stat5bTg mice; design: species or system mouse; conditions: lymphoma cells from NOD.Stat5bTg mice in hollow fibers in nude mice, 4 days of daily treatment
Source text: Cellmax implant membranes were purchased from Spectrum Laboratories Inc. (Rancho Dominguez, Calif.). Lymphoma cells from NOD.Stat5b^Tg mice were harvested, suspended in cold phosphate buffered saline (PBS) and introduced into a 15 cm length of hollow fiber. The fiber was heat-sealed at 20 mm intervals, and each segment was separated using a pair of scissors. Intraperitoneal implantation in methoxyflurane anesthetized 6 week-old nude mice were accomplished via a dorsal incision which allowed passage of the hollow fiber into abdomen. The abdominal wall is closed using skin staples. After 3 days of transplantation, mice with implants were treated daily with either AG490 (30 mg/kg/day) or CNH (40 mg/kg/day). Single cell suspensions were obtained after 4 days of treatment by cutting off the sealed ends of the fibers. Cells were then washed twice with PBS and further processed for flow cytometry.
as §2, with “For intracellular staining, cells were fixed and permeablized using Cytofix/Cytoperm solution (BD PharMingen), followed by P-Stat5 (pY694)-APC staining.” left out

[4] = system: lymphoma in NOD.Stat5bTg mice; test: Lymphomagenesis in NOD.Stat5bTg mice; type: in vivo, mouse; conditions: 5 week-old NOD.Stat5bTg mice, three cycles of 3-week on and 3-week off
Source text: In several experiments, mice were monitored for tumors through physical examination. Mice showing sufficient signs of pain and suffering including thymic and cervical lymphoid enlargement were euthanized for a complete necropsy. Final diagnosis of disease was established by clinical, pathologic and FACS analysis. Images of H&E staining were visualized with an Axiophot I microscope (Carl Zeiss) equipped with a Plan Neofluar 40X objective (FIG. 1c). Images were captured with an Axiocam color CDD camera, and treated on a computer with Axiovision software (Carl Zeiss).
as §1
Since AG490 and STAT5b inhibitor CNH can inhibit STAT5 function and CD150 expression, they could delay lymphomagenesis. […] STAT5 inhibitors are potentially very effective in treating cancers with fewer unpleasant side effects. To test this possibility, CNH (40 mg/kg/day) was used to treat 5 week-old NOD.Stat5^Tg mice with three cycles of 3-week on and 3-week off.

Row | SMILES | p-STAT5 expression in thymocytes (phosphorylated STAT5) | survival of CD8+ lymphoma cells [1] | number of CD8+ thymocytes (CD8+ thymocytes) | expression of genes up-regulated in NOD.Stat5bTg mice (Ckmt2, Dgat2, Myl4, Csrp3, Nppa, Sln and Myh6) in thymocytes [2] | CD150 expression on CD8+ thymocytes (CD150) | apoptosis of lymphoma cells (Annexin V) [3] | STAT5 activation (pSTAT5) in peripheral blood CD8+ T cells (phosphorylated STAT5) | CD150 expression in peripheral blood CD8+ T cells (CD150) | age before which treated mice were free of lymphomas [4] [weeks] | percentage of treated mice that developed lymphoma by 30 weeks of age [4] [%]
1 | N#C/C(=C/c1ccc(O)c(O)c1)C(=O)NCc1ccccc1 [AG490] | dramatic decrease | did not alter | greatly decreased | did not significantly down-regulate | inhibited | significantly increased | – | – | – | –
2 | O=c1cc(-c2ccc(O)cc2)oc2cc(O)cc(O)c12 [Apigenin] | – | – | – | – | – | – | significantly inhibit | significantly inhibit | – | –
3 | O=C(NN=Cc1coc2ccccc2c1=O)c1cccnc1 [CNH, chromone-based nicotinyl hydrazone] | did not decrease | did not alter | significantly decreased | did not significantly down-regulate | significantly decreased | significantly increased | – | – | ≥ 27 | 17
4 | COc1cc(O)c(CC=C(C)C)c(O)c1C(=O)/C=C/c1ccc(O)cc1 [Xanthohumol] | – | – | – | – | – | – | significantly inhibit | significantly inhibit | – | –
